Data: patent publication US20060127505A1, “Anti-inflammatory formulations” (priority 2002, published 2006)
“Also recorded” adds a separate entry of the source. Structures can show the parent of a compound that is named as a salt. Marks after values point to notes of the source that are not given here.

What was measured:
[1] = tested on: CD3+HLA-DR+ T lymphocytes in human PBMC; assay: PHA induction of HLA-DR+ on CD3+ T cells, PBMC from asthma patients (Example 5); assay type: cell-based; conditions: for SI HLA-DR: PHA 50 μg/ml, 24 hours
Protocol: (§1) Experiments were carried out to determine whether the immunoregulatory capacity of two commonly-used H1-inhibitory antihistamines: cetirizine dihydrochloride (CTZ/Zyrtec) and azelastine ([…]) is potentiated by the platelet activating factor receptor (PAFR) antagonist and free radical scavenger Ginkgolide B (GB). […] Each drug was first evaluated independently over a 3-log dose range from 10^-8-10^-6 M.

[2] = tested on: CD3+CD25+ T lymphocytes in human PBMC; assay: PHA induction of CD25+ on CD3+ T cells, PBMC from asthma patients (Example 5); assay type: cell-based; conditions: for SI CD25: PHA 50 μg/ml, 24 hours
Protocol: as §1

[3] = tested on: CD3+CD25+ cells in human PBMC; assay: T lymphocyte activation (CD3+CD25+) in PHA-stimulated PBMC of asthma patients (Example 6); assay type: cell-based; conditions: PHA 50 μg/ml, 24 hours; 10^−5 M
Protocol: Experiments were carried out to determine whether formulations based on the platelet activating factor receptor (PAFR) antagonist and free radical scavenger Ginkgolide B (GB) in combination with the antioxidant carotenoid astaxanthin (ASX) suppress T cell activation in the same dose range as two commonly-used antihistamines: cetirizine dihydrochloride (CTZ/Zyrtec) and azelastine ([…]). […] Results are reported as stimulation indices (SI) of % CD3+CD25+ cells in cultures treated with PHA alone to % CD3+CD25+ cells in each drug-supplemented culture. […] Subjects for this study included 12 patients diagnosed with atopic asthma, 7 male and 5 female, ranging in age from 21 to 40 years (mean 28±1.8 years). Disease duration ranged from 2 to 12 years. Atopy was defined on the basis of one or more positive skin prick tests to a range of 20 allergens. None of the patients had received systemic therapy for at least 6 weeks prior to blood collection. The mean serum IgE was 335 (170-480) IU/ml. Venous blood for each subject was collected in polyethylene tubes containing EDTA during a one hour morning time interval. PBMC were separated by Ficoll-paque (Pharmacia, Uppsala, Sweden) density gradient centrifugation. Cells were washed and suspended in RPMI 1640 medium (Gibco BRL, Gaithersburg, Md.) at density of 1×10^6 cells/ml. PBMC were stimulated with 50 μg/ml Phytohemaglutinin (PHA) (Sigma Immunopharmaceuticals, St. Lous Mo.), or PHA plus 10^-8-10^-5 M astaxanthin (Natural Alternatives International (NAI) Inc., San Marcos Calif.); or ginkgolide B 10^-8-10^-6 M (NAI San Marcos Calif.); or selected combinations of ASX plus GB. Comparison of ASX and GB effects on T cell activation were made with two other pharmacological agents with anti-asthmatic properties by treating cells with 10^-7-10^-4 M cetirizine dihydrochloride (Pfizer Pharmaceuticals, Norwich Conn.); or 10^-7-10^-4 M azalestine hydrochloride (Wallace Pharmaceuticals, Somerset N.J.), followed by evaluation of cultures for the same biological endpoints as ASX/GB-treated cells. Each reagent was added at the outset of a 24 hours culture period, followed by harvest of cellular fraction for immunophenotyping studies. […] Two-color Flow cytometry was conducted using a Coulter Epics XL automated flow cytometer (Coulter Scientific, Hialeah, Fla., USA). Isotypic controls for the monoclonal antibodies (mAb) used to detect antigens of interest were established for each cell preparation. Positive analysis regions for cells expressing specific surface markers were set against controls and specific binding of fluorophore-conjugated mAb was analyzed by cytofluorography according to standard methods recommended by the manufacturer. Lymphocyte subpopulations were identified by position on forward and side scatter plots and live-gated. Expression of each antigen was reported as percentage cells positive for a particular T cell subpopulation defined by expression of CD3 (T lymphocyte marker) plus CD25, plus or minus standard error. Statistical analysis was performed using an independent t-test. All statistical analyses were performed using the SPSS for Windows statistical package (Norusis/SPSS, Inc.). […] The capacity of formulations evaluated in this study to suppress immune activation was measured as a stimulation index (SI), defined as the ratio of […].

[4] = tested on: ovalbumin(OA)-induced asthma in guinea pigs; assay: Ovalbumin-induced asthma in guinea pigs: inflammatory cells in BAL fluid; assay type: in vivo, guinea pig; conditions: for Eosinophils / Macrophages / Neutrophils: BAL fluid 24 hours after OV challenge
Protocol: The effect combinations of vitamin C, astaxanthin, and ginkolide on asthma-associated disease parameters ovalbumin(OA)-induced asthma in guinea pigs was evaluated. Twenty-four hours following OA challenge, animals are sacrificed and numbers of inflammatory cells (eosinophils, neutrophils, macrophages) are measured in bronchoalveolar lavage (BAL) fluid; and cAMP and cGMP concentrations in the lung tissue. The experiments were carried out as follows. Male Hartley guinea pigs (250-350 g) were sensitized by intramuscular injections of 0.35 ml of a 5% (W/V) ovalbumin (OA)/saline solution into each thigh on days 1 and 4. Guinea pigs were ready for asthmatic challenge after 25 days of ovalbumin injection. Asthmatic challenge was carried out with ovalbumin aerosol, and bronchoalveolar lavage (BAL) was done 24 hours later. The numbers of eosinophils, neutrophils, and macrophages in the BAL fluid were counted. Twenty-four hours after the aerosol OA challenge, guinea pigs were killed by cervical dislocation and exsanguinated by severing the axillary arteries. Lungs were lavaged with 50 ml of DulBecco's phosphate-buffered saline (aliquots of 10 ml), which were aspirated after gentle chest massage. BAL fluid was centrifuged at 2200 rpm (1100×g) for 10 min, supernatant was aspirated, and pellets were resuspended in 5 ml 0.25% NaCl to lyse residual erythrocytes. This dispersion was centrifuged at 2200 rpm (1100×g) for 10 min, supernatant was aspirated, and pellets were resuspended 5 ml 0.9% NaCl. Total cell counts were done by hemocytometry using trypan blue stain. Slides were prepared on a Shandon Cytospin 2 (Pittsburgh, Pa.) at 300 rpm for 5 min, fixed and stained. Differential cell counts were done using standard morphologic criteria to classify cells as eosinophils, neutrophils, or macrophages, and the results were expressed in cell numbers. The dose-responsive effect of AX, EGb761, and vitamin C administered independently for suppression of asthma-associated parameters in allergen-induced, asthmatic guinea pigs was determined. Ibuprophen (IB) was used as the positive control. Concentration of inflammatory cells in bronchoalveolar lavage (BAL) fluid and levels of cAMP and cGMP in lung tissue were measured in guinea pigs 24 hours following challenge with OV. Data is reported as mean±SD of measurements taken in 6 animals per dosage cohort. *p<0.05 compared to corresponding values of OV antigen-challenged, drug-free control group. The dose-responsive effect of AX, EGb761, and vitamin C administered in combination for suppression of asthma-associated parameters in allergen-induced, asthmatic guinea pigs was determined. The combination of these three components was given each day for each guinea pig as a “cocktail”. Concentration of inflammatory cells in bronchoalveolar lavage (BAL) fluid and levels of cAMP and cGMP in lung tissue were measured in guinea pigs 24 hours following challenge with OV. Data is reported as mean±SD of measurements taken in 6 animals per dosage cohort. *p<0.05 compared to corresponding values of OV antigen-challenged, drug-free control group.

[5] = tested on: cAMP and cGMP concentrations in the lung tissue; assay: Ovalbumin-induced asthma in guinea pigs: cAMP and cGMP in lung tissue (radioimmunoassay); assay type: in vivo, guinea pig; conditions: lung tissue 24 hours after OV challenge
Protocol: The effect combinations of vitamin C, astaxanthin, and ginkolide on asthma-associated disease parameters ovalbumin(OA)-induced asthma in guinea pigs was evaluated. Twenty-four hours following OA challenge, animals are sacrificed and numbers of inflammatory cells (eosinophils, neutrophils, macrophages) are measured in bronchoalveolar lavage (BAL) fluid; and cAMP and cGMP concentrations in the lung tissue. The experiments were carried out as follows. Male Hartley guinea pigs (250-350 g) were sensitized by intramuscular injections of 0.35 ml of a 5% (W/V) ovalbumin (OA)/saline solution into each thigh on days 1 and 4. Guinea pigs were ready for asthmatic challenge after 25 days of ovalbumin injection. Asthmatic challenge was carried out with ovalbumin aerosol, and bronchoalveolar lavage (BAL) was done 24 hours later. The numbers of eosinophils, neutrophils, and macrophages in the BAL fluid were counted. Biopsies from lung tissues, cAMP and cGMP were measured using commercially available radioimmunoassay kits (Amersham). Immediately after sampling, lung biopsies were frozen by means of a Wollenberger clamp prechilled in liquid nitrogen. Samples were powdered with a pestle and mortar in liquid nitrogen and trichloro acetic acid (TCA) was added to the powdered frozen samples ([…] of tissue). Samples were further homogenized in the frozen TCA in the braying mortar and then centrifuged at 14,000×g for 10 min at 4° C. The supernatants were extracted 6 times in water-saturated diethylether, evaporated and assayed for cGMP by radioimmunoassay using liquid scintillation counter (Packard, Tri-Carb 2100TR). The dose-responsive effect of AX, EGb761, and vitamin C administered independently for suppression of asthma-associated parameters in allergen-induced, asthmatic guinea pigs was determined. Ibuprophen (IB) was used as the positive control. Concentration of inflammatory cells in bronchoalveolar lavage (BAL) fluid and levels of cAMP and cGMP in lung tissue were measured in guinea pigs 24 hours following challenge with OV. […] The dose-responsive effect of AX, EGb761, and vitamin C administered in combination for suppression of asthma-associated parameters in allergen-induced, asthmatic guinea pigs was determined. The combination of these three components was given each day for each guinea pig as a “cocktail”. Concentration of inflammatory cells in bronchoalveolar lavage (BAL) fluid and levels of cAMP and cGMP in lung tissue were measured in guinea pigs 24 hours following challenge with OV.

CN1CCCC(n2nc(Cc3ccc(Cl)cc3)c3ccccc3c2=O)CC1 (centres unmarked) [AZE, azelastine]
decrease in SI for HLA-DR ([1]; 10^−8 M): 45% | SI HLA-DR ([1]; 10^−6 M): 0.61 ± 0.13 | SI HLA-DR ([1]; 10^−7 M): 0.56 ± 0.10 | SI HLA-DR ([1]; 10^−8 M): 0.55 ± 0.09 | decrease in SI for CD25+ ([2]; 10^−8 M): 19% | SI CD25 ([2]; 10^−6 M): 1.13 ± 0.15 | SI CD25 ([2]; 10^−7 M): 0.88 ± 0.08 | SI CD25 ([2]; 10^−8 M): 0.81 ± 0.08 | SI (CD3+CD25+) [3]: 0.76±0.12

O=C(O)COCCN1CCN(C(c2ccccc2)c2ccc(Cl)cc2)CC1 (centres unmarked) [CTZ, cetirizine dihydrochloride]
decrease in SI for HLA-DR ([1]; 10^−8 M): 53% | SI HLA-DR ([1]; 10^−6 M): 0.70 ± 0.04 | SI HLA-DR ([1]; 10^−7 M): 0.58 ± 0.11 | SI HLA-DR ([1]; 10^−8 M): 0.47 ± 0.13 | decrease in SI for CD25+ ([2]; 10^−8 M): 29% | SI CD25 ([2]; 10^−6 M): 0.93 ± 0.06 | SI CD25 ([2]; 10^−7 M): 0.88 ± 0.14 | SI CD25 ([2]; 10^−8 M): 0.71 ± 0.12 | SI (CD3+CD25+) [3]: 0.78±0.11

CC(C)Cc1ccc(C(C)C(=O)O)cc1 (centres unmarked) [IB, Ibuprophen, reference compound]
Eosinophils ([4]; 10 mg/kg): 5.4 ± 0.8 cell × 10^6/animal | Macrophages ([4]; 10 mg/kg): 9.5 ± 0.8 cell × 10^6/animal | Neutrophils ([4]; 10 mg/kg): 5.7 ± 0.7 cell × 10^5/animal | Eosinophils ([4]; 100 mg/kg): 4.7 ± 0.6 cell × 10^6/animal | Macrophages ([4]; 100 mg/kg): 9.0 ± 1.3 cell × 10^6/animal | Neutrophils ([4]; 100 mg/kg): 5.0 ± 0.7 cell × 10^5/animal | Eosinophils ([4]; 500 mg/kg): 3.0 ± 0.8* cell × 10^6/animal | Macrophages ([4]; 500 mg/kg): 4.7 ± 1.3* cell × 10^6/animal | Neutrophils ([4]; 500 mg/kg): 3.1 ± 0.9* cell × 10^5/animal | Eosinophils ([4]; 1000 mg/kg): 2.9 ± 0.5* cell × 10^6/animal | Macrophages ([4]; 1000 mg/kg): 4.3 ± 0.9* cell × 10^6/animal | Neutrophils ([4]; 1000 mg/kg): 3.1 ± 0.5* cell × 10^5/animal | cAMP ([5]; 10 mg/kg): 7.1 ± 0.6 pmol (mg protein)^−1 | cGMP ([5]; 10 mg/kg): 1.1 ± 0.2 pmol (mg protein)^−1 | cAMP ([5]; 100 mg/kg): 7.3 ± 0.9 pmol (mg protein)^−1 | cGMP ([5]; 100 mg/kg): 1.1 ± 0.2 pmol (mg protein)^−1 | cAMP ([5]; 500 mg/kg): 8.2 ± 0.8 pmol (mg protein)^−1 | cGMP ([5]; 500 mg/kg): 1.4 ± 0.2 pmol (mg protein)^−1 | cAMP ([5]; 1000 mg/kg): 8.1 ± 0.9 pmol (mg protein)^−1 | cGMP ([5]; 1000 mg/kg): 1.6 ± 0.2 pmol (mg protein)^−1

O=C1O[C@H]([C@@H](O)CO)C(O)=C1O [Vitamin C, ascorbic acid]
Eosinophils ([4]; 50 mg/kg): 5.5 ± 0.5 cell × 10^6/animal | Macrophages ([4]; 50 mg/kg): 9.5 ± 0.9 cell × 10^6/animal | Neutrophils ([4]; 50 mg/kg): 5.4 ± 0.6 cell × 10^5/animal | Eosinophils ([4]; 100 mg/kg): 5.5 ± 0.8 cell × 10^6/animal | Macrophages ([4]; 100 mg/kg): 9.8 ± 0.9 cell × 10^6/animal | Neutrophils ([4]; 100 mg/kg): 5.6 ± 0.8 cell × 10^5/animal | Eosinophils ([4]; 200 mg/kg): 4.8 ± 1.1 cell × 10^6/animal | Macrophages ([4]; 200 mg/kg): 9.2 ± 0.8 cell × 10^6/animal | Neutrophils ([4]; 200 mg/kg): 5.0 ± 0.8 cell × 10^5/animal | Eosinophils ([4]; 400 mg/kg): 3.5 ± 0.9* cell × 10^6/animal | Macrophages ([4]; 400 mg/kg): 7.2 ± 1.5* cell × 10^6/animal | Neutrophils ([4]; 400 mg/kg): 4.7 ± 0.9 cell × 10^5/animal | protection against OV-induced asthma ([4]; components used separately: 10 mg/kg AX, 200 mg/kg vit C, 10 mg/kg GB): failed to protect; also recorded: failed to reduce the severity of asthma | cAMP ([5]; 50 mg/kg): 6.8 ± 0.5 pmol (mg protein)^−1 | cGMP ([5]; 50 mg/kg): 1.1 ± 0.2 pmol (mg protein)^−1 | cAMP ([5]; 100 mg/kg): 7.1 ± 0.8 pmol (mg protein)^−1 | cGMP ([5]; 100 mg/kg): 1.0 ± 0.2 pmol (mg protein)^−1 | cAMP ([5]; 200 mg/kg): 7.9 ± 0.9 pmol (mg protein)^−1 | cGMP ([5]; 200 mg/kg): 1.2 ± 0.2 pmol (mg protein)^−1 | cAMP ([5]; 400 mg/kg): 7.9 ± 0.8 pmol (mg protein)^−1 | cGMP ([5]; 400 mg/kg): 1.5 ± 0.2 pmol (mg protein)^−1
